US20240325531A1, “CAR T/NK-CELLS FOR USE IN THE TREATMENT OF INVASIVE FUNGAL INFECTIONS” (UNIVERSITAT DE BARCELONA, priority 2021, published 2024)

What was measured:
Fusarium petroliphilum [1] = test: Treatment of a patient with fusariosis (compassionate, first-in-human use); assay type: in vivo; conditions: one patient; liposomal amphotericin-B, terbinafine and voriconazole given together, before cell therapy
Fusarium petroliphilum [2] = test: Antifungal resistance tests (MIC) on the patient's mold; assay type: cell-based; conditions: Fusarium petroliphilum from the patient's skin biopsy; no clinical breakpoints established; read-out: minimum inhibitory concentrations (MIC)
Experimental: The patient was admitted to the hospital for fever, muscle pain, and polytopic erythematous plaques/nodules on the trunk and extremities, some of them with central pustules. […] Blood cultures were negative. Galactomannan and β-D-glucan were negative. […] Bronchoscopy was performed but all results were negative.

[3] = system: acute panmyelosis with myelofibrosis; test: Patient's earlier treatment of relapsed haematological disease; assay type: in vivo, human; conditions: venetoclax plus azacytidine, after the first two cycles, one patient

| Structure (SMILES) | MIC (Fusarium petroliphilum [2]) | clinical course under antifungal drugs (Fusarium petroliphilum [1]) | response of haematological disease [3] |
| --- | --- | --- | --- |
| CN(C/C=C/C#CC(C)(C)C)Cc1cccc2ccccc12 [terbinafine] |  | remained febrile, with appearance of new skin lesions and mild worsening of the chest CT images |  |
| C[C@@H](c1nc(-c2ccc(C#N)cc2)cs1)[C@](O)(Cn1cncn1)c1cc(F)ccc1F [isavuconazole] | > 8 µg/mL |  |  |
| Nc1ncn([C@@H]2O[C@H](CO)[C@@H](O)[C@H]2O)c(=O)n1 [azacytidine] |  |  | partial response |

Continued, in another order:

| MIC (Fusarium petroliphilum [2]) | Structure (SMILES) | clinical course under antifungal drugs (Fusarium petroliphilum [1]) | response of haematological disease [3] |
| --- | --- | --- | --- |
| > 8 µg/mL | CC[C@@H]([C@H](C)O)n1ncn(-c2ccc(N3CCN(c4ccc(OC[C@@H]5CO[C@@](Cn6cncn6)(c6ccc(F)cc6F)C5)cc4)CC3)cc2)c1=O [posaconazole] |  |  |
| > 8 µg/mL | C[C@@H](c1ncncc1F)[C@](O)(Cn1cncn1)c1ccc(F)cc1F [voriconazole] | remained febrile, with appearance of new skin lesions and mild worsening of the chest CT images |  |
